Experimental data published in the CheMixHub ionic liquid set.

Experiment: xn = mol fraction of the nth substance listed
Details: 100 kPa

C[NH2+]CCC=C1c2ccccc2CCc2ccccc21.[Cl-] + CC[n+]1ccn(C)c1.[Br-] + O
viscosity [mPa·s]
Details	308.15 K	318.15 K
x1 = 0.0001985, x2 = 0.0001801	0.754	0.638
x1 = 0.0002171, x2 = 0.0007201	0.76	0.645
x1 = 0.0002197, x2 = 0.00126	0.768	0.653
x1 = 0.0005409, x2 = 0.0001801	0.761	0.646
x1 = 0.00056, x2 = 0.001259	0.776	0.662
x1 = 0.0005649, x2 = 0.0007199	0.768	0.653
x1 = 0.0009071, x2 = 0.0007196	0.776	0.66
x1 = 0.0009111, x2 = 0.00018	0.769	0.652
x1 = 0.0009287, x2 = 0.001259	0.784	0.67
x1 = 0.001275, x2 = 0.001258	0.792	0.678
x1 = 0.001279, x2 = 0.0001799	0.776	0.659
x1 = 0.001292, x2 = 0.0007194	0.784	0.667
x1 = 0.001649, x2 = 0.0007191	0.792	0.674
x1 = 0.001657, x2 = 0.0001799	0.784	0.666
x1 = 0.001661, x2 = 0.001258	0.8	0.686
x1 = 0.002001, x2 = 0.0001798	0.792	0.674
x1 = 0.002028, x2 = 0.0007188	0.8	0.681
x1 = 0.002029, x2 = 0.001257	0.809	0.694
x1 = 0.002358, x2 = 0.0001797	0.801	0.682
x1 = 0.002375, x2 = 0.001257	0.818	0.702
x1 = 0.002379, x2 = 0.0007186	0.808	0.689
x1 = 0.002737, x2 = 0.0001797	0.81	0.691
x1 = 0.002745, x2 = 0.001256	0.827	0.71
x1 = 0.002757, x2 = 0.0007183	0.817	0.698
x1 = 0.00309, x2 = 0.001256	0.836	0.718
x1 = 0.003104, x2 = 0.0001796	0.819	0.7
x1 = 0.003108, x2 = 0.000718	0.826	0.707
x1 = 0.003467, x2 = 0.0001795	0.829	0.709
x1 = 0.003489, x2 = 0.0007178	0.836	0.716
x1 = 0.00349, x2 = 0.001255	0.846	0.725
